Laboratory results as given in US11230533B2, “Crystalline salts and polymorphs of a P2X3 antagonist” (Afferent Pharmaceuticals, Inc., priority 2016, dated 2022).
Converted amounts (≈) assume the structure as drawn. Read-outs that look alike come from different tables or passages of the source.

Assay: Approximate solubility by solvent addition
Format: physicochemical
Protocol: Solubilities are calculated based on the total solvent used to give a solution; actual solubilities may be greater because of the volume of the solvent portions used or a slow rate of dissolution. Values are rounded to the nearest whole number.
Solubilities are calculated based on the total solvent used to give a solution; actual solubilities may be greater because of the volume of the solvent portions used or a slow rate of dissolution. Values are rounded to the nearest whole number. […] If dissolution occurred as determined by the visual assessment after the addition of the first aliquot, the value is reported as “>”.

solubility (aqueous with cosolvent or surfactant or cyclodextrin, thermodynamic from solid, solvent acetone/water 50:50 (v/v), read-out: Solubility): < 1000 µg/mL
solubility (organic solvent or mixture, thermodynamic from solid, solvent ACN/water 90:10 (v/v), read-out: Solubility): 1000 µg/mL (≈ 2830 µM)
solubility (organic solvent or mixture, thermodynamic from solid, solvent ACN, read-out: Solubility): < 2000 µg/mL
solubility (organic solvent or mixture, thermodynamic from solid, solvent DMSO, read-out: Solubility): 20000 µg/mL (≈ 56600 µM)
solubility (organic solvent or mixture, thermodynamic from solid, solvent EtOAc, read-out: Solubility): < 1000 µg/mL
solubility (organic solvent or mixture, thermodynamic from solid, solvent EtOH, read-out: Solubility): < 1000 µg/mL
solubility (organic solvent or mixture, thermodynamic from solid, solvent MeOH, read-out: Solubility): 1000 µg/mL (≈ 2830 µM)
solubility (organic solvent or mixture, thermodynamic from solid, solvent TFE, read-out: Solubility): 2000 µg/mL (≈ 5660 µM)
solubility (organic solvent or mixture, thermodynamic from solid, solvent acetone, read-out: Solubility): < 1000 µg/mL
solubility (solvent water, ambient temperature): <1000 µg/mL
solubility (thermodynamic from solid, solvent water, ambient temperature, read-out: Solubility): < 1000 µg/mL
SMILES: COc1cc(C(C)C)c(Oc2cnc(N)nc2N)cc1S(N)(=O)=O [Compound A Free Base Form A, 5-(2,4-diamino-pyrimidin-5-yloxy)-4-isopropyl-2-methoxy-benzenesulfonamide]
